Values quoted from earlier work, collected in patent US20080015223A1, “Pyrazole Derivatives as Modulators of the 5-Ht2a Serotonin Receptor Useful for the Treatment of Disorders Related Thereto” (Arena Pharmaceuticals, Inc., priority 2004, published 2008).

Legend:
rats [1] = test system: rats
[2] = test system: spontaneously hypertensive rats
[3] = 24 months of treatment, patients
[4] = glaucoma patients
rats [5] = test system: rats; remark: listed apart in the source
[6] = humans, lumbar disc herniation

Cc1nc2sccn2c(=O)c1CCN1CCC(=C(c2ccc(F)cc2)c2ccc(F)cc2)CC1 [ritanserin]
JC virus infection of human glial cells (JC virus): inhibited

CN1CCN2c3ccccc3Cc3ccccc3C2C1 (stereo not drawn) [Mainserin]
DOCA-salt induced hypertension (rats [1]): prevent

O=C(c1ccc(F)cc1)C1CCN(CCn2c(=O)[nH]c3ccccc3c2=O)CC1 [ketanserin]
JC virus infection of human glial cells (JC virus): inhibited | blood pressure [2]: stabilize

COc1cccc(CCc2ccccc2OCC(CN(C)C)OC(=O)CCC(=O)O)c1 (stereo not drawn) [sarpogrelate]
urinary albumin excretion level [3]: significantly reduced | IOP [4]: significantly lower | analgesic effect on thermal induced pain (rats [5]; intraperitoneal administration): significant analgesic effect | analgesic effect on inflammatory pain (rats [5]; intrathecal or intraperitoneal administration): significant analgesic effect | treatment for lower back pain, leg pain and numbness associated with sciatica [6]: effective treatment
